According to patent US20230312491A1, “N-SUBSTITUTED 4-(5-PHENYL-1,3,4-OXADIAZOL-2-YL)ANILINE FOR THE TREATMENT AND PROPHYLAXIS OF HEPATITIS B VIRUS INFECTION” (priority 2020, published 2023):

Key:
Type in all cases: cell-based
HBsAg = experiment: PHH natural infection assay, HBsAg (alphalisa); settings: Hepatitis B virus, Hepatocyte, 72 h, read-out: HBsAg IC50
Experimental: (§1) Detailed procedures regarding primary human hepatocyte (PHH) HBV natural infection assay are described as below. One tube of frozen PHH (10 million cells) is thawed in 37° C. water bath and then transferred to 20 mL of PHH thawing medium (Sigma, InVitroGRO HT Medium, Cat. S03319) with gently mixing. The cells were then centrifuged at […] for 5 min, the supernatant was discarded and the tube was refilled with 25 mL of PHH plating medium (Sigma, InVitroGRO CP Medium, Cat. S03317). The tube was shaken very gently to re-suspend all cells, and then 50 µl of cells were transferred to each well 384-well collagen I coated plate with appropriate liquid handling equipment, e.g. Integra VIAFLO384 or Agilent Bravo. The cells were then cultured for 24 hours in a cell incubator. For HBV infection, after PHH attachment on the culture plate, the plating medium was removed and replenished with PHH culture medium containing HBV virus. The PHH culture medium was prepared with Dulbecco’s Modified Eagle Medium (DMEM)/F12 (1: 1 in volume ratio) containing 10% fetal bovine serum (Gibco, Cat.10099141), 5 ng/mL human epidermal growth factor (Gibco, Cat.PHG0311L), 20 ng/mL dexamethasone (Sigma, Cat.D4902-100 mg), 250 ng/mL human recombinant insulin (Gibco, Cat.41400045) and 100 U/mL penicillin. HBV virus at 200 genome equivalent (GE) per cell with 4% PEG8000 (Sigma, Cat.P1458) containing culture medium were added to the PHH culture medium for infection. The cells were then cultured for 24 hours in cell incubator. Then the cell culture supernatant was removed. The HBV-infected PHH were cultured with sandwich culture method with PHH culture medium containing 1% DMSO and 0.25 mg/mL matrix gel for 72 hours. The supernatant was then refreshed with PHH culture medium containing different concentrations of testing compounds for two times with 72-hour interval. At the end of treatment, the supernatant was collected for viral markers measurements, including HBsAg, HBeAg, HBV DNA and cytotoxicity. HBsAg and HBeAg were detected using alphalisa method using their specific antibodies. For HBV DNA detection, HBV DNA Quantitative Fluorescence Diagnostic Kit (Sansure Biotech Inc.) was used following the manufacture’s protocol. Cytotoxicity was determined using Cell Counting Kit-8 (CCK8, Dojindo Molecular Technologies, Inc.).
(§2) The compounds of the present invention were tested for their capacity to inhibit HBsAg and HBeAg as described herein.

HBeAg = experiment: PHH natural infection assay, HBeAg (alphalisa); settings: Hepatitis B virus, Hepatocyte, 72 h, read-out: HBeAg IC50
Experimental: as §1, §2

[1] = PHH natural infection assay, cytotoxicity (Cell Counting Kit-8); settings: HBV-infected primary human hepatocytes, CCK8
Experimental: as §1

| SMILES | IC50 (HBsAg) [µM] | IC50 (HBeAg) [µM] | CC50 at 144 h [1] [µM] |
| --- | --- | --- | --- |
| Cc1cc(Cl)cc(C(=O)Nc2ccc(-c3nnc(-c4ccccc4)o3)cc2)c1 [Example 11, 3-chloro-5-methyl-N-[4-(5-phenyl-1,3,4-oxadiazol-2-yl)phenyl]benzamide] | 6.4 | 12.7 | > 100 |
| CCCC(=O)Nc1ccc(-c2nnc(-c3ccccc3)o2)cc1 [Example 2, N-[4-(5-phenyl-1,3,4-oxadiazol-2-yl)phenyl]butanamide] | 3 | 43.1 | > 100 |
| Cc1cc(-c2nnc(-c3ccccc3)o2)ccc1N [Example 30, 2-methyl-4-(5-phenyl-1,3,4-oxadiazol-2-yl)aniline] | 1.43 | 3.21 | > 100 |
| COc1cc(C(=O)Nc2ccc(-c3nnc(-c4ccccc4)o3)cc2)ccn1 [Example 21, 2-methoxy-N-[4-(5-phenyl-1,3,4-oxadiazol-2-yl)phenyl]pyridine-4-carboxamide] | 2 | 1.91 | > 100 |
| CC(C)(C)C(=O)Nc1ccc(-c2nnc(-c3ccccc3)o2)cc1 [Example 28, 2,2-dimethyl-N-[4-(5-phenyl-1,3,4-oxadiazol-2-yl)phenyl]propanamide] | 7.65 | 4.23 | > 100 |
